For series [1] the following is noted: published isomerization study of model o-quinone; cited from earlier work.
Another series deals with DNA. Put plainly: Formation of DNA adducts by quinones or horseradish peroxidase-activated catechol estrogens in vitro (32P-postlabeling for stable adducts). The class given is biochemical. An excerpt: First, the o-quinones of estrogens are capable of binding directly to the nucleophilic groups of DNA bases. Second, the 3,4-quinones of estrogens produce depurinating adducts that are lost from DNA, generating apurinic sites in the DNA; and third, the 2,3-quinones form stable adducts that remain bound to DNA if not repaired. In fact, reaction of 2,3- and 3,4-quinones with DNA or CE activated by horseradish peroxidase in the presence of DNA affords differential formation of stable adducts, as evidenced by 32P-postlabeling analysis. The 2,3-quinones form 10-50 times higher levels of stable adducts than the 3,4-quinones.

The test system of the next series is DNA, rat mammary gland. Put plainly: Formation of depurinating DNA adducts in the rat mammary gland. Format: in vivo.
The next series concerns hamster kidney. As to conditions: Syrian golden hamsters; cited from earlier work.
A short description of series [2]: Stability of estrogen quinones at various pH (remaining quinone by HPLC). The class given is physicochemical. As for the experimental part:
Because acidic conditions were used to generate these estrogen-nucleoside adducts, an investigation was conducted of the effects of pH on the stability of both the 3,4- and 2,3-quinones.
^a pH was adjusted with the following buffers: pH 9, trisHCl; pH 7,
distilled H2 O; […]; pH 3, citric acid.
^b t1/2 is defined as the time when 1/2 of the original quinone
concentration was observed by HPLC
^c Quinones (0.02 mmol) were synthesized in 2 mL of CH3 CN and
placed in 10 mL of aqueous buffer

Series [3] is described as follows: 1H-NMR monitoring of E1-2,3-Q to quinone methide tautomerization in CH3CN-d3. The class given is physicochemical.

SMILES strings stand for the structures. Read-outs that look alike come from different tables or passages of the source.

On to `O=C1C=C2CCCCC2=CC1=O`, for which, in series [1], the “o-quinone more stable when tautomerized to the QM by” value is given as 3.8 kcal/mol.
On to `C[C@]12CC[C@@H]3c4ccc(O)c(O)c4CC[C@H]3[C@@H]1CCC2=O` [4-OHE1, 4-hydroxyestrone], for which the “formation of depurinating E1(E2)-1-(α,β)-N7Gua adducts” value is recorded as “almost exclusively” in the series on DNA and “almost exclusively” in the series on DNA, rat mammary gland (rat, in vivo).
Regarding `C[C@]12CC[C@@H]3c4ccc(O)c(O)c4CC[C@H]3[C@@H]1CC[C@@H]2O` [4-OHE2, 4-hydroxyestradiol], the “formation of depurinating E1(E2)-1-(α,β)-N7Gua adducts” value is reported as “almost exclusively” in the series on DNA (in vitro, 3,4-quinones or enzymically-activated 4-OHE1/4-OHE2) and “almost exclusively” in the series with DNA, rat mammary gland (rat mammary gland).
With `C[C@]12CC[C@@H]3c4ccc(O)cc4CC[C@H]3[C@@H]1CCC2=O` [E1, estrone], in the series on hamster kidney, the “induction of renal tumors / carcinogenicity” value is “Malignant renal tumors are induced”.
As for `C[C@]12CC[C@@H]3C4=CC(=O)C(=O)C=C4CC[C@H]3[C@@H]1CCC2=O` [E1-2,3-Q], the “effect of lowering pH on stability” value in series [2] is given as “did not”. Moreover, the “decomposition under mildly basic conditions” value in series [2] is “decomposed rapidly”. Besides, the half-life in series [2] (pH 3, citric acid, read-out: t1/2 (time when 1/2 of the original quinone concentration was observed by HPLC)) is 1.17 h; in series [2] (pH 5, trizma, read-out: t1/2 (time when 1/2 of the original quinone concentration was observed by HPLC)) it was 1.83 h; in series [2] (pH 7, distilled H2O, read-out: t1/2 (time when 1/2 of the original quinone concentration was observed by HPLC)), 1.83 h; in series [2] (pH 9, trisHCl, read-out: t1/2 (time when 1/2 of the original quinone concentration was observed by HPLC)), below 0.0833 h. The “change of 1H-NMR spectrum over time” value in series [3] (CH3CN-d3, two days) was “unchanged for two days”. Also, the “change of o-quinone 1H-NMR spectrum over time with acid” value in series [3] (CH3CN-d3 with CF3CO2H-d, two weeks) was “no change in the o-quinone spectrum was observed”.
Take `C[C@]12CC[C@@H]3C4=C(CC[C@H]3[C@@H]1CCC2=O)C(=O)C(=O)C=C4` [E1-3,4-Q]: in series [2], the “effect of lowering pH on stability” value is recorded as “marked increase in stability”. Also, the half-life was 6.5 h in series [2] (citric acid, pH 3); 1.83 h in series [2] (distilled h2o, pH 7); below 0.0833 h in series [2] (trishcl, pH 9); 3.17 h in series [2] (trizma, pH 5). Also, in series [2], the “decomposition under mildly basic conditions” value is listed as “decomposed rapidly”.
Regarding `C[C@]12CC[C@@H]3c4ccc(O)cc4CC[C@H]3[C@@H]1CC[C@@H]2O` [E2, 17β-estradiol], the “induction of renal tumors / carcinogenicity” value in the series on hamster kidney is “Malignant renal tumors are induced”.

The values above are taken from patent publication US5952183A, “Synthesis of estrogen-purine base and estrogen-mercapturate adducts and development of fluorescent probes and monoclonal antibodies to assay those adducts” (priority 1998, dated 1999).
